# Measurements: ChEMBL document CHEMBL5357036, “Latest developments in coumarin-based anticancer agents: mechanism of action and structure-activity relationship studies” (RSC Med Chem, 2024)
# Key:
# Hs-578T = assay: Anticancer activity against human Hs-578T cells assessed as cell growth inhibition by MTT assay; assay type: functional, cell-based
# HCC1937 = assay: Anticancer activity against human HCC1937 cells assessed as reduction in cell growth incubated for 48 hrs by MTT assay; assay type: functional, cell-based; conditions: HCC1937, 48 h
# MDA-MB-231 [1] = assay: Anticancer activity against human MDA-MB-231 cells assessed as reduction in cell viability incubated for 48 hrs by MTT assay; assay type: functional, cell-based; conditions: MDA-MB-231, 48 h
# MDA-MB-468 = assay: Anticancer activity against human MDA-MB-468 cells assessed as reduction in cell viability incubated for 48 hrs by MTT assay; assay type: functional, cell-based; conditions: MDA-MB-468, 48 h
# HepG2 [2] = assay: Antiproliferative activity against human HepG2 cells assessed as reduction in cell viability incubated for 48 hrs by MTT assay; assay type: functional, cell-based; conditions: HepG2, 48 h
# MCF7 [3] = assay: Antiproliferative activity against human MCF7 cells assessed as cell growth inhibition; assay type: functional, cell-based
# MCF7 [4] = assay: Antiproliferative activity against human MCF7 cells assessed as reduction in cell viability incubated for 72 hrs by MTT assay; assay type: functional, cell-based; conditions: MCF7, 72 h
# A549 [5] = assay: Antiproliferative activity against human A549 cells assessed as cell growth inhibition measured after 48 hrs by MTT assay; assay type: functional, cell-based; conditions: A549, 48 h
# HT-29 = assay: Antiproliferative activity against human HT-29 cells assessed as cell growth inhibition measured after 48 hrs by MTT assay; assay type: functional, cell-based; conditions: HT-29, 48 h
# [6] = molecular target: ALK tyrosine kinase receptor (Homo sapiens, UniProt Q9UM73, L1196M); assay: Inhibition of ALK L1196M mutant (unknown origin)
# [7] = molecular target: ALK tyrosine kinase receptor (Homo sapiens, UniProt Q9UM73, G1202R); assay: Inhibition of ALK G1202R mutant (unknown origin)
# [8] = molecular target: ALK tyrosine kinase receptor (Homo sapiens, UniProt Q9UM73, G1269A); assay: Inhibition of ALK G1269A mutant (unknown origin)
# HCT-116 = assay: Anticancer activity against human HCT-116 cells assessed as reduction in cell viability by MTT assay; assay type: functional, cell-based
# MCF7 [9] = assay: Anticancer activity against human MCF7 cells assessed as reduction in cell viability by MTT assay; assay type: functional, cell-based
# HepG2 [10] = assay: Anticancer activity against human HepG2 cells assessed as reduction in cell viability by MTT assay; assay type: functional, cell-based
# DU-145 [11] = assay: Anticancer activity against human DU-145 cells assessed as cell growth inhibition by MTT assay; assay type: functional, cell-based
# MCF7 [12] = assay: Anticancer activity against human MCF7 cells assessed as cell growth inhibition by MTT assay; assay type: functional, cell-based
# HepG2 [13] = assay: Antiproliferative activity against human HepG2 cells assessed as reduction in cell viability incubated for 72 hrs by MTT assay; assay type: functional, cell-based; conditions: HepG2, 72 h
# Vero = assay: Cytotoxicity against African green monkey Vero cells incubated for 24 hrs by CellTiter-Glo assay; assay type: toxicity, cell-based, Chlorocebus sabaeus
# HeLa = assay: Antiproliferative activity against human HeLa cells assessed as reduction in cell viability by MTT assay; assay type: functional, cell-based
# HepG2 [14] = assay: Antiproliferative activity against human HepG2 cells assessed as reduction in cell viability by MTT assay; assay type: functional, cell-based
# A549 [15] = assay: Antiproliferative activity against human A549 cells assessed as reduction in cell viability by MTT assay; assay type: functional, cell-based
# SK-OV-3 = assay: Antiproliferative activity against human SK-OV-3 cells assessed as reduction in cell viability by MTT assay; assay type: functional, cell-based
# MCF7-DOX = assay: Antiproliferative activity against human MCF7-DOX cells assessed as reduction in cell viability by MTT assay; assay type: functional, cell-based
# DU-145 [16] = assay: Antiproliferative activity against human DU-145 cells assessed as reduction in cell viability by MTT assay; assay type: functional, cell-based
# MCF7 [17] = assay: Cytotoxicity against human MCF7 cells assessed as cell growth inhibition by SRB assay; assay type: functional, cell-based
# MDA-MB-231 [18] = assay: Cytotoxicity against human MDA-MB-231 cells assessed as cell growth inhibition by SRB assay; assay type: functional, cell-based
# MDA-MB-231 [19] = assay: Antiproliferative activity against human MDA-MB-231 cells assessed as cell growth inhibition measured after 48 hrs by MTT assay; assay type: functional, cell-based; conditions: MDA-MB-231, 48 h
# HepG2 [20] = assay: Cytotoxicity against human HepG2 cells assessed as reduction in cell viability; assay type: functional, cell-based
# MCF7 [21] = assay: Antiproliferative activity against human MCF7 cells assessed as reduction in cell viability by MTT assay; assay type: functional, cell-based
# A549 [22] = assay: Antiproliferative activity against human A549 cells assessed as reduction in cell viability measured after 24 hrs by MTT assay; assay type: functional, cell-based; conditions: A549, 24 h
# ALK tyrosine kinase receptor (Homo sapiens, UniProt Q9UM73, G1269A), sequence (Q9UM73 19-1620 G1269A limits assumed): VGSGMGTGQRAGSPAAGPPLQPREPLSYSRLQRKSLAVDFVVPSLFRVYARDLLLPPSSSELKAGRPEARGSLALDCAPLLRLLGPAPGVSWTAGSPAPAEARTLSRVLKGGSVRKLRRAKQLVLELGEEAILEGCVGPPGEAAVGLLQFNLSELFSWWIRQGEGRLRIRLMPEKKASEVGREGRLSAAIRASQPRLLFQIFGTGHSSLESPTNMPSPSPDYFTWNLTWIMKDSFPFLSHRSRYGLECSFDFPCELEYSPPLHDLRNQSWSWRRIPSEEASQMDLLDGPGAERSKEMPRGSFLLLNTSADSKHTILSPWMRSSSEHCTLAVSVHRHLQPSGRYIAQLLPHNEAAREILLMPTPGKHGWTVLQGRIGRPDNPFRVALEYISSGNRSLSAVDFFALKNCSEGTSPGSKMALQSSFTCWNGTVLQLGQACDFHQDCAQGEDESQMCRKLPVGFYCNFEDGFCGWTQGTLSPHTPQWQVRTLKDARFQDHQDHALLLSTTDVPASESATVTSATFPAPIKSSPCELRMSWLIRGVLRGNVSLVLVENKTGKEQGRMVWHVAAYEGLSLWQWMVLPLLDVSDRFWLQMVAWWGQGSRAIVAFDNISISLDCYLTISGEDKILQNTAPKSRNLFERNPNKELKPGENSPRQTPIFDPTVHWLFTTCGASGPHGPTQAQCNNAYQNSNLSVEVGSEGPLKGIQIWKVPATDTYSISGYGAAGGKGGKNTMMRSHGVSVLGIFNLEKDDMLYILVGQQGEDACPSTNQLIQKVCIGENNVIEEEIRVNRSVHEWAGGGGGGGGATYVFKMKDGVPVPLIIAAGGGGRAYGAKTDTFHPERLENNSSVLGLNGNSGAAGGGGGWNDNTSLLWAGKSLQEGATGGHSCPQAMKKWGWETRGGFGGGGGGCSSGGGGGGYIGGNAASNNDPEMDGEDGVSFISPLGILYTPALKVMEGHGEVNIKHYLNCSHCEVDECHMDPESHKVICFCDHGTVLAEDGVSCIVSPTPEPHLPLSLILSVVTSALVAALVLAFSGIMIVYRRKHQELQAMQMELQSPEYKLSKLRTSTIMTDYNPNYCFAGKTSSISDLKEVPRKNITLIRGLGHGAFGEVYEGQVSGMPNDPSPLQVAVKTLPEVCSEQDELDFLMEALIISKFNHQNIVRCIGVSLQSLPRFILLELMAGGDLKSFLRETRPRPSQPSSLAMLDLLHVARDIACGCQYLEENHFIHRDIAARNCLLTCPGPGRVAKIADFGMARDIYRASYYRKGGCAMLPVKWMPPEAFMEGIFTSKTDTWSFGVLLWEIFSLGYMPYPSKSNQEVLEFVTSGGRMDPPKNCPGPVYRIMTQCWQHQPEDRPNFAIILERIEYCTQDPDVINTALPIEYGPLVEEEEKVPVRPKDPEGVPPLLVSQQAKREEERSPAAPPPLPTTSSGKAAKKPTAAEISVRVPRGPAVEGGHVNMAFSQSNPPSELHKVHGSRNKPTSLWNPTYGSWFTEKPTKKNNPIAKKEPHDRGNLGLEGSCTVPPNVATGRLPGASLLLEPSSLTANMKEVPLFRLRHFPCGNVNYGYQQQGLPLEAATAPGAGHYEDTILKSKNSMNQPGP
# ALK tyrosine kinase receptor (Homo sapiens, UniProt Q9UM73, L1196M), sequence (Q9UM73 19-1620 L1196M limits assumed): as the sequence (Q9UM73 19-1620 G1269A limits assumed) above, with L1178M, A1251G counted along it
# ALK tyrosine kinase receptor (Homo sapiens, UniProt Q9UM73, G1202R), sequence (Q9UM73 19-1620 G1202R limits assumed): as the sequence (Q9UM73 19-1620 G1269A limits assumed) above, with G1184R, A1251G counted along it
structure (smiles),measurement,setting,value
O=c1oc2ccccc2c(O)c1C(c1ccc(O)cc1O)c1c(O)c2ccccc2oc1=O,IC50,Hs-578T,25.7 µM
same,IC50,HCC1937,20.2 µM
same,IC50,MDA-MB-231 [1],25.3 µM
same,IC50,MDA-MB-468,15.2 µM
C/C(=N\NC1=NCC(=O)S1)c1ccc(NS(=O)(=O)c2ccc3oc(=O)ccc3c2)cc1,IC50,HepG2 [2],5.03 µM
O=C1CCn2cc(nn2)CCOc2ccccc2C(C(=O)c2cc3ccccc3oc2=O)N1 (centres undefined),IC50,MCF7 [3],49 µM
Cc1cc(=O)oc2cc(OCC(=O)Nc3ccc(C(=O)/C=C/c4ccco4)cc3)ccc12,IC50,MCF7 [4],9.62 µg/mL
O=c1oc2ccccc2cc1-c1nc(Nc2c3ccccc3nc3ccc(F)cc23)cs1,IC50,A549 [5],5.18 µM
same,IC50,HT-29,23.1 µM
COc1ccc2nc(-c3cc4ccc(N5CCOCC5)cc4oc3=O)sc2c1,IC50,[6],0.27 µM
same,IC50,[7],0.59 µM
same,IC50,[8],0.3 µM
O=C(CSc1nnc(NC(=O)c2ccccc2)s1)Nc1ccc2oc(=O)ccc2c1,IC50,HCT-116,30.7 µg/mL
same,IC50,MCF7 [9],54.9 µg/mL
COc1ccc(/C=C/C(=N/O)c2ccc(NC(=O)COc3ccc4c(C)cc(=O)oc4c3)cc2)cc1,IC50,MCF7 [4],20.9 µg/mL
COc1ccc(C(=O)Nc2nnc(SCC(=O)Nc3ccc4oc(=O)ccc4c3)s2)cc1,IC50,HepG2 [10],24.9 µg/mL
CC(C)(C)c1cc(C(C)(C)C)c2oc(=O)c(-c3csc(-n4nc(-c5ccccc5)cc4N)n3)cc2c1,IC50,DU-145 [11],7 µM
CCN(CC)c1ccc2oc(=O)c(-c3csc(-n4nc(-c5ccccc5)cc4N)n3)cc2c1,IC50,MCF7 [12],8 µM
O=c1cc(OCc2cc(-c3cc4c(cc3Cl)OCO4)no2)c2cc(Cl)ccc2o1,IC50,HepG2 [13],12.8 µM
same,IC50,Vero,144 µM
Cc1ccc2c(c1)/C(=N\O)C(=O)N2CCOCCn1cc(COc2ccc3c(C)cc(=O)oc3c2)nn1,IC50,HeLa,21.3 µM
same,IC50,HepG2 [14],19.9 µM
same,IC50,A549 [15],18.7 µM
same,IC50,SK-OV-3,18 µM
same,IC50,MCF7-DOX,15.5 µM
same,IC50,DU-145 [16],31.5 µM
Cc1c(-c2csc(N)n2)c(=O)oc2cc(OC(C)(C)C(=O)O)ccc12,IC50,MCF7 [17],2.39 µM
same,IC50,MDA-MB-231 [18],4.84 µM
COc1ccc2nc3ccccc3c(Nc3csc(-c4cc5ccccc5oc4=O)n3)c2c1,IC50,MDA-MB-231 [19],8.03 µM
CO[C@@H]1O[C@H](Cn2nncc2COc2cc(=O)oc3ccccc23)[C@@H](O)[C@H](O)[C@H]1O,IC50,HepG2 [20],107 µg/mL
CO/N=C1\C(=O)N(CCOCCOCCOCCn2cc(COc3ccc4c(C)cc(=O)oc4c3)nn2)c2ccc(F)cc21,IC50,HeLa,25.5 µM
same,IC50,MCF7 [21],29.2 µM
same,IC50,HepG2 [14],26.1 µM
same,IC50,A549 [15],28.7 µM
same,IC50,SK-OV-3,35.3 µM
same,IC50,MCF7-DOX,20.1 µM
same,IC50,DU-145 [16],33.4 µM
Cc1ccc2c(c1)C(=O)C(=O)N2CCOCCn1cc(COc2ccc3c(C)cc(=O)oc3c2)nn1,IC50,MCF7 [21],28.7 µM
O=C(/C(Cl)=N/Nc1ccc([N+](=O)[O-])cc1)n1c(-c2cc3ccccc3oc2=O)nc2ccccc21,IC50,A549 [22],0.28 µM
